Like-named read-outs stand apart in the source and are kept apart here.
Tests used:
[1] = biological target: T1, human recombinant adrenergic α2B receptor (Homo sapiens, UniProt P18089); experiment: Radioligand binding, adrenergic α2B ([3H]Rauwolscine); conditions: for inhibition at 0.03 µM: read-out: Percentage inhibition of ligand binding, Adrenergic α2B (0.03 μM), compound at 0.03 μM
T1 construct: expressed in transfected cells; host or cells: CHO-K1
T1 sequence (P18089 1-450): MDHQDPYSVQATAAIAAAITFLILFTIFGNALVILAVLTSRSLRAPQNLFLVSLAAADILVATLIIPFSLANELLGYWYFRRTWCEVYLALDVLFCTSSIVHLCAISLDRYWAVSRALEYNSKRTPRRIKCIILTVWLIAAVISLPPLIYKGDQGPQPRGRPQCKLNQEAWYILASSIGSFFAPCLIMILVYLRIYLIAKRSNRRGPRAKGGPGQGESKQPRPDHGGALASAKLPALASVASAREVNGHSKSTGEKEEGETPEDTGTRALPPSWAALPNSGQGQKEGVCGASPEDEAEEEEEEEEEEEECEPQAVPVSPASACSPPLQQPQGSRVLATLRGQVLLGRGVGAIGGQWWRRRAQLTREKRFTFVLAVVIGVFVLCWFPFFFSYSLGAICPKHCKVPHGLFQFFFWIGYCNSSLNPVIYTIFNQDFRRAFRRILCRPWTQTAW
Method in brief: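 Assay used CHO-K1-expressed human α2B receptor in Tris-HCl pH 7.4 buffer with MgCl2, EDTA and BSA; 60 min incubation at 25 °C.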

[2] = biological target: T2, rat adrenergic α1B receptor (Rattus norvegicus, UniProt P15823); experiment: Radioligand binding, adrenergic α1B ([3H]Prazosin); conditions: for inhibition at 0.03 µM: read-out: Percentage inhibition of ligand binding, Adrenergic α1B (0.03 μM), compound at 0.03 μM
T2 construct: rat adrenergic α1B receptor obtained from Wistar Rat liver; from tissue; host or cells: Wistar rat liver
T2 sequence (P15823 1-515): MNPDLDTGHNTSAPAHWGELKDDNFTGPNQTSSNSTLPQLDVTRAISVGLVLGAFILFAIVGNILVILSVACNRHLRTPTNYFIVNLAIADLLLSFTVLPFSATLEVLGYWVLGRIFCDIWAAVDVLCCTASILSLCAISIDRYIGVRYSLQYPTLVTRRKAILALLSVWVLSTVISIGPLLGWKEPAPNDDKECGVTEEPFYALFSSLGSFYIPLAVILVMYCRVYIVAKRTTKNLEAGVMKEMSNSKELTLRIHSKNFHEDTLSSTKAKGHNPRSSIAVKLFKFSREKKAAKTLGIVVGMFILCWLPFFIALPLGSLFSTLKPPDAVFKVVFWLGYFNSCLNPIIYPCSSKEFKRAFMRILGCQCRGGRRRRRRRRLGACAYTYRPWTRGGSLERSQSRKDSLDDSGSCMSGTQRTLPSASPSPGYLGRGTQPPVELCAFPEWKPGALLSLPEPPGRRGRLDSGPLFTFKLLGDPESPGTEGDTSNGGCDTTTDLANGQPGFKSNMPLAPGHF
Method in brief: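 Filter binding with Wistar rat liver α1B preparation: test compound plus 0.25 nM [3H]prazosin, 1 h at 25° C in modified Tris-HCl buffer pH 7.4.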

[3] = biological target: T3, human recombinant adrenergic α2A receptor (Homo sapiens, UniProt P08913); experiment: Radioligand binding, adrenergic α2A ([3H]MK-912)
T3 construct: expressed in transfected cells; host or cells: insect Sf9 cells
T3 sequence (P08913 1-465): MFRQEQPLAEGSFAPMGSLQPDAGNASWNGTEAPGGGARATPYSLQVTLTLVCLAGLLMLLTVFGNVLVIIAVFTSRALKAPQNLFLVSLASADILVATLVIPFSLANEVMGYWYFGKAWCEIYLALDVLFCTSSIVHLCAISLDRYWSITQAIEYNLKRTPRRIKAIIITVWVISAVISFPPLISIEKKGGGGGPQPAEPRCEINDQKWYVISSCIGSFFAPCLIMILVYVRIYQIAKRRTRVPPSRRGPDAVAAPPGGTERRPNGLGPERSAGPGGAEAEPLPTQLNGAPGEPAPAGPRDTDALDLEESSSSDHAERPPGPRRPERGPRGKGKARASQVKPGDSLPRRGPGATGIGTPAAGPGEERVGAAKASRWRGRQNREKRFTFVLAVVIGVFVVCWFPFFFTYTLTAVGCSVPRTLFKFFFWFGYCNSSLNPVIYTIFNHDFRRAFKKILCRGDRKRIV
Method in brief: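 Sf9-expressed receptor was incubated with compound for 60 min at 25 °C in modified Tris-HCl buffer, pH 7.4. Nonspecific binding was taken as that remaining with 10 μM WB-4101.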

[4] = biological target: T4, human recombinant adrenergic α1D receptor (Homo sapiens, UniProt P25100); experiment: Radioligand binding, adrenergic α1D ([3H]Prazosin); conditions: for inhibition at 0.03 µM: read-out: Percentage inhibition of ligand binding, Adrenergic α1D (0.03 μM), compound at 0.03 μM
T4 construct: expressed in transfected cells; host or cells: HEK-293
T4 sequence (P25100 1-572): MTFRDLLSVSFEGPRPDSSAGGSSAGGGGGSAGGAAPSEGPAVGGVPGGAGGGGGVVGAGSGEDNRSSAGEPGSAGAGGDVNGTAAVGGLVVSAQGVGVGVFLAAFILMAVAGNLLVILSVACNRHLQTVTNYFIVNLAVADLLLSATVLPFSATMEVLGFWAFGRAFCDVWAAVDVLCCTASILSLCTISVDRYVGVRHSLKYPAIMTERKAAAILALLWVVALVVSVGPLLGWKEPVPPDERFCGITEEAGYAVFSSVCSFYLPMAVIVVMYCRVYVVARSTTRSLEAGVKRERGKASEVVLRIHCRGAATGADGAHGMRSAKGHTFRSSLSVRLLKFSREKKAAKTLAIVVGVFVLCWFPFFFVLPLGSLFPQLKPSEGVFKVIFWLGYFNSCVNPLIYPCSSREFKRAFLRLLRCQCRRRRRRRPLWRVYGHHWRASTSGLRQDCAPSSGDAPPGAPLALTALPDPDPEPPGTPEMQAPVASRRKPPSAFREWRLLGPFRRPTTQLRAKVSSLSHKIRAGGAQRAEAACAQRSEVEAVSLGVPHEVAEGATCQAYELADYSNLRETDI
Procedure: Compounds were incubated with 0.6 nM [3H]Prazosin for 60 min at 25° C. Non-specific binding was estimated in the presence of 10 μM phentolamine. Receptor proteins were filtered and washed, the filters were then counted to determine [3H]Prazosin specifically bound. […] Biochemical assay results are presented as the percent inhibition of specific binding in Table B1.

[5] = 0.1 μM compound, read-out: Percentage inhibition of ligand binding, Adrenergic α2B
[6] = 0.1 μM compound, read-out: Percentage inhibition of ligand binding, Adrenergic α1B
[7] = 0.1 μM compound, read-out: Percentage inhibition of ligand binding, Adrenergic α2A
[8] = 0.1 μM compound, read-out: Percentage inhibition of ligand binding, Adrenergic α1D
[9] = read-out: Percentage inhibition of ligand binding, Adrenergic α2B (0.1 μM), compound at 0.1 μM, [3H]Rauwolscine, repeat datapoints each shown
[10] = read-out: Percentage inhibition of ligand binding, Adrenergic α1B (0.1 μM), compound at 0.1 μM, [3H]Prazosin, repeat datapoints each shown
[11] = read-out: Percentage inhibition of ligand binding, Adrenergic α2A (0.1 μM), compound at 0.1 μM, [3H]MK-912, repeat datapoints each shown
[12] = read-out: Percentage inhibition of ligand binding, Adrenergic α1D (0.1 μM), compound at 0.1 μM, [3H]Prazosin, repeat datapoints each shown
[13] = [3H]Rauwolscine, repeat datapoints each shown
[14] = [3H]Prazosin, repeat datapoints each shown

Row | Compound | inhibition at 0.1 µM [1, 5] [%] | inhibition at 0.1 µM [2, 6] [%] | inhibition at 0.1 µM [3, 7] [%] | inhibition at 0.1 µM [4, 8] [%] | inhibition at 0.1 µM [1, 9] [%] | inhibition at 0.1 µM [2, 10] [%] | inhibition at 0.1 µM [3, 11] [%] | inhibition at 0.1 µM [4, 12] [%] | also measured
1 | C/C(=C/n1c2c(c3cc(C)ccc31)CN(C)CC2)c1cccc(F)c1 [compound 236] | – | – | – | – | 98 | 94 | 99 | 85 | –
2 | COc1ccc(C(C)(O)Cn2c3c(c4cc(Cl)ccc42)C2CCC(C3)N2C)cc1F (stereo not shown) [II-164] | – | – | – | – | 40 | 12 | 15 | 0 | –
3 | CNC(=O)c1cccc(/C(C)=C/n2c3c(c4cc(C)ccc42)CN(C)CC3)c1 [compound 107] | – | – | – | – | 85 | 56 | 10 | 63 | –
4 | Cc1ccc2c(c1)c1c(n2CC(C)(O)c2ccc(C)nc2)CCN(C)C1 (stereo not shown) [compound 29] | – | – | – | – | – | – | – | – | inhibition at 0.1 µM ([1]; compound at 0.1 μM, [3H]Rauwolscine, repeat assays, each datapoint shown, read-out: Percentage inhibition of ligand binding, Adrenergic α2B): 100%; inhibition at 0.1 µM ([2]; compound at 0.1 μM, [3H]Prazosin, repeat assays, each datapoint shown, read-out: Percentage inhibition of ligand binding, Adrenergic α1B): 24%; inhibition at 0.1 µM ([3]; compound at 0.1 μM, [3H]MK-912, repeat assays, each datapoint shown, read-out: Percentage inhibition of ligand binding, Adrenergic α2A): 10%; inhibition at 0.1 µM ([4]; compound at 0.1 μM, [3H]Prazosin, repeat assays, each datapoint shown, read-out: Percentage inhibition of ligand binding, Adrenergic α1D): 1%
5 | C/C(=C\n1c2c(c3cc(C)ccc31)CCN(C)CC2)c1ccc(Cl)c(Cl)c1 [compound 238] | – | – | – | – | 98 | 67 | 94 | 25 | –
6 | C/C(=C\n1c2c(c3cc(C)ccc31)CN(C)CC2)c1cccc(F)c1 [compound 237] | – | – | – | – | 99 | 80 | 98 | 52 | –
7 | COc1ccc(CCn2c3c(c4cc(C)ccc42)CN(C)CC3)cc1 [compound 218] | – | – | – | – | – | – | – | – | inhibition at 0.03 µM [1, 13]: 110%; inhibition at 0.03 µM [2, 14]: 79%; inhibition at 0.03 µM ([3]; read-out: Percentage inhibition of ligand binding, Adrenergic α2A (0.03 μM), compound at 0.03 μM, [3H]MK-912, repeat datapoints each shown): 85%; inhibition at 0.03 µM [4, 14]: 60%
8 | CC(=O)Nc1ccc(/C(C)=C/n2c3c(c4cc(C)ccc42)CN(C)CC3)cn1 [compound 112] | – | – | – | – | 79 | 44 | 26 | 40 | –
9 | COc1ccc(C(C)(O)Cn2c3c(c4cc(C)ccc42)CN(C)CC3)cc1F (stereo not shown) [II-163] | – | – | – | – | 86 | 66 | 41 | 28 | –
10 | Cc1ccc2c(c1)c1c(n2CCc2ccc(Cl)cc2)CCN(C)C1 [compound 184, 5-(4-Chlorophenethyl)-2,3,4,5-tetrahydro-2,8-dimethyl-1H-pyrido[4,3-b]indole] | – | – | – | – | – | – | 93 | – | inhibition at 0.03 µM [1, 13]: 95%; inhibition at 0.03 µM [2, 14]: 60%; Ki [3]: 184 nM; inhibition at 0.03 µM [4, 14]: 24%
11 | C/C(=C\n1c2c(c3cc(Cl)ccc31)CCN(C)CC2)c1ccc(Cl)cc1Cl [compound 229] | – | – | – | – | 90 | 17 | 53 | 8 | –

More lines, main results first:

Row | inhibition at 0.1 µM [1, 5] [%] | inhibition at 0.1 µM [2, 6] [%] | inhibition at 0.1 µM [3, 7] [%] | inhibition at 0.1 µM [4, 8] [%] | inhibition at 0.1 µM [1, 9] [%] | inhibition at 0.1 µM [2, 10] [%] | inhibition at 0.1 µM [3, 11] [%] | inhibition at 0.1 µM [4, 12] [%] | Compound | also measured
12 | 101 | 89 | 85 | 53 | – | – | – | – | COc1ccc(/C(C)=C/n2c3c(c4cc(C)ccc42)CCN(C)CC3)cc1 [compound 251] | –
13 | 98 | 81 | 99 | 69 | – | – | – | – | C/C(=C/n1c2c(c3cc(C)ccc31)CN(C)CC2)c1sccc1C [compound 287] | –
14 | 92 | 45 | 54 | 26 | – | – | – | – | Cc1ccc2c(c1)c1c(n2CC(C)(C)c2ccncc2)CCN(C)C1 [compound 260] | –
15 | 101 | 33 | 75 | 30 | – | – | – | – | C/C(=C\n1c2c(c3cc(C)ccc31)CN(C)CC2)c1ccc2[nH]cnc2c1 [compound 282] | –
16 | 92 | 79 | 90 | 93 | – | – | – | – | C/C(=C/n1c2c(c3cc(C)ccc31)CN(C)CC2)c1cnc(N(C)C)nc1 [compound 279] | –
17 | 7 | 89 | 61 | 71 | – | – | – | – | Cc1ccc2c(c1)c1c(n2CCc2cccc3c2CCNC3)CCN(C)C1 [compound 317, 2,8-dimethyl-5-[2-(1,2,3,4-tetrahydro-isoquinolin-5-yl)-ethyl]-2,3,4,5-tetrahydro-1H-pyrido[4,3-b]indole] | –
18 | 103 | 94 | 95 | 60 | – | – | – | – | Cc1ccc2c(c1)c1c(n2CCc2cscc2C)CCN(C)C1 [compound 318, 2,8-dimethyl-5-[2-(4-methyl-thiophen-3-yl)-ethyl]-2,3,4,5-tetrahydro-1H-pyrido[4,3-b]indole] | –

Source: patent US8791132B2, “Compounds and methods for treatment of hypertension” (Medivation Technologies, Inc., priority 2011, dated 2014)
